The record followed here is ChEMBL document CHEMBL6096718, “Discovery of Rezatapopt (PC14586), a First-in-Class, Small-Molecule Reactivator of p53 Y220C Mutant in Development” (ACS Med Chem Lett, 2025).

SMILES strings stand for the structures.

In the experiment the test system is Cellular tumor antigen p53 (Homo sapiens), P04637 [Y220C]. In words: Binding affinity to recombinant His-tagged p53 Y220C mutant DNA binding domain (94 to 312 residues) (unknown origin) assessed as induction of biotin-labeled consensus DNA binding by measuring […] concentration required to increase DNA binding incubated for 48 mins by TR-FRET assay. The conditions noted are these: filed as activator. (In general: In TR-FRET formats the signal depends on donor and acceptor labels being close together.)
`COc1cc(S(C)(=O)=O)ccc1NCC#Cc1cc2c(N[C@H]3CCN(C)C[C@H]3F)cccc2n1CC(F)(F)F`: the EC150 amounted to 20 nM. As for `COc1cc(S(C)(=O)=O)ccc1NCC#Cc1cc2c(N[C@@H]3CCN(C)C[C@@H]3F)cccc2n1CC(F)(F)F`, the EC150 worked out at 8 nM.

For `COc1cc(S(C)(=O)=O)ccc1NCC#Cc1cc2c(N[C@@H]3CCN(C)C[C@@H]3F)cccc2n1CC(F)(F)F` (racemic), the EC150 came to 9 nM.

Consider `COc1cc(S(C)(=O)=O)ccc1NCC#Cc1cc2c(N[C@@H]3CCN(C)C[C@H]3F)cccc2n1CC(F)(F)F` (racemic), for which the EC150 amounted to 20 nM.
